For one molecule, IC50 results are on record in publication PMC2897805, “Evolution of AANAT: expansion of the gene family in the cephalochordate amphioxus” (2010).

The target in the assay is T1, bfAANATα (Branchiostoma floridae, UniProt B9TUB5).
T1 construct: gene AANATalpha; full-length cDNA clone from B. floridae head, GST fusion (pGEX 4T-1), E. coli BL21Gold(DE3) pLysS
T1 sequence (B9TUB5 1-247): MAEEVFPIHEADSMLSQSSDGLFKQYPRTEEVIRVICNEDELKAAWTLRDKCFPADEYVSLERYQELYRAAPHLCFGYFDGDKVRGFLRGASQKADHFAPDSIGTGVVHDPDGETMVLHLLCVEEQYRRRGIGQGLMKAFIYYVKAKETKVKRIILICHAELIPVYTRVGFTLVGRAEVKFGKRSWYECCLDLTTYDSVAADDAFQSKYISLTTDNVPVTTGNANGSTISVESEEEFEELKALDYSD
Briefly: acetyltransferase activity assay, recombinant GST fusion; also displaces CoA-HNE. The format is biochemical.

The structures appear in SMILES notation.

For `CC(C)(CO[P@@](=O)(O)O[P@@](=O)(O)OC[C@H]1O[C@@H](n2cnc3c(N)ncnc32)[C@H](O)[C@@H]1OP(=O)(O)O)[C@@H](O)C(=O)NCCC(=O)NCCSCC(=O)NCCc1c[nH]c2ccccc12` [CoA-T], the IC50 came to 3 µM.

The IC50 is the concentration at which inhibition is half-maximal.
